The values that follow come from patent US11273141B2, “Low-dose carbachol compositions and methods for treatment of night vision disturbance” (VYLUMA INC., priority 2020, dated 2022).

For data set [1], the system named is Dutch Belted Rabbits. Nature of the data set: Pupillary diameter (pupillometry) after single ocular administration, rabbit eye model. It counts as in vivo. As to the method:
Study design: 3 Dutch Belted Rabbits (pigmented breed)/group received a single ocular administration of test articles (one drop per eye) at 3 concentrations (tested one week apart). After a 2-week rest period, combinations were tested. Ocular Irritation was assessed using a modified Draize test. Intraocular pressure (IOP) was measured at baseline, 1 h, 4 h, 6 h and 24 h. Pupillary Diameter was measured at baseline, 15 min, 1 h, 4 h and 6 h after dosing.
Due to the variation in pupillary diameter and IOP between rabbits and between eyes within rabbits, the data for pupillary diameter and IOP were normalized and presented with error bars (SD). A change of 15% to 20% approximates a pupillary diameter change of 1 mm. In human, a reduction of pupillary diameter of about 2 mm is clinically generally desired.

Data set [2] deals with human individuals. Kind of data set: Miotic response (dose response, eye color) to carbachol formulations in human. The data set is classed as in vivo. From the text: FIG. 7 is a graph depicting exemplary results for a dose response in human using a carbachol formulation according to the inventive subject matter.
FIG. 8 is a graph depicting exemplary results for miotic response in human individuals of different eye color using a 0.29% carbachol formulation according to the inventive subject matter.
FIG. 9 is a graph depicting exemplary results for miotic response in human individuals of different eye color using a 0.50% carbachol formulation according to the inventive subject matter.
FIG. 10 is a graph depicting exemplary results for miotic response in human individuals of different eye color using a 0.75% carbachol formulation according to the inventive subject matter.
To optimize the concentration of carbachol in the topical ophthalmic formulations, the inventors tested various dosages, and the table below depicts the composition for the carbachol formulations used.
Exemplary results for the miotic effect of carbachol at 0.29%, 0.50%, and 0.75% are depicted in FIG. 7.

For data set [3] the following is noted: known side effects; cited from earlier work.
Data set [4] concerns pupillary muscle. Kind of data set: Effect of benzalkonium chloride on the miotic effect of carbachol. It counts as in vivo. The note with it: carbachol 0.025% to 0.075%. From the text: In still further experiments, the inventors investigated the effect of benzalkonium chloride on the miotic effect of carbachol. To that end, different concentrations of BAC were employed between 0.005% and 0.02% at carbachol concentrations between 0.025% and 0.075%, and the results are shown in FIGS. 6A-6C.

Where [5] appears, read: 0.5% and 1%, one drop per eye, rabbit.

“Also recorded” adds a separate entry of the source.

`Brc1c(NC2=NCCN2)ccc2nccnc12` [Brimonidine]: the “effect on pupillary diameter (in words)” value in data set [1] (doses tested, concentration not given, rabbit) is given as “little to no effect”.

Take `C[N+](C)(C)CCOC(N)=O` [Carbachol, carbamoylcholine]: the duration of action in data set [1] (carbachol doses tested, rabbit) was 2 to 4 h. For the same compound, the “duration of miotic efficacy” value in data set [2] (0.5%, single dose) came out at 3 h. In addition, the “saturation of dose response” value in data set [2] (tested formulations) is 0.5%.

Consider `COc1ccc2c3c1O[C@H]1C[C@@H](O)C=C[C@@]31CCN(C)C2` [Galantamine], for which the “duration of reduction in pupillary diameter” value in data set [1] (2% (high dose) alone, rabbit) was “at least 1 h”. In addition, in data set [1] (2% alone, rabbit), the “decrease in pupillary diameter” value is reported as 1-2 mm.

Regarding `Cc1ccc(N(CC2=NCCN2)c2cccc(O)c2)cc1` [Phentolamine], in data set [1] (setting [5]), the “decrease in the pupil” value was “approximately 1 mm” and the “duration of decrease in the pupil” value is “at least 6 h”. Further, in data set [1] (all doses, FIG. 1, rabbit), the “duration of reduction in pupillary diameter” value is given as “at least 6 h” and the “reduction in pupillary diameter (in words)” value was “a reduction in pupillary diameter occurred at all doses”.

In the case of `CCN(C)C(=O)Oc1cccc([C@H](C)N(C)C)c1` [Rivastigmine], in data set [1] (1% alone, rabbit), the “decrease in pupillary diameter” value is 1 mm and the “effect on pupillary diameter (in words)” value is reported as “very low effects as compared to carbachol; also recorded: performed substantially similar to Phentolamine; also recorded: desirable effect”.

With `CC(=O)OC1CN2CCC1CC2` (stereo not shown) [aceclidine, 1-azabicyclo[2.2.2]octan-3-yl acetate], the side effects result in data set [3] is “increased salivation and bradycardia”.

In the case of “N-Alkyl-N-benzyl-N,N-dimethyl-ammonium chloride [BAC]”, the figures for the “effect of BAC on miotic effect of carbachol” value in data set [4] (BAC 0.005%), in data set [4] (BAC 0.01%) and in data set [4] (BAC at least 0.02%) were “minimal effect”, “somewhat more pronounced” and “significant”, respectively.
